# Source: ChEMBL document CHEMBL1201862, “PubChem BioAssay data set” (2004)
#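 Briefly, cells in 96-well plates were exposed to five compound concentrations for 48 h, and endpoints were estimated by linear interpolation. GI50 marks 50% less growth.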 Activity calls are given as the source filed them. Rule as the data show it: active = GI50 up to about 1.1 µM and inactive = higher.
# Key:
# Assay in all cases: inhibition of tumour cell growth, NCI panel, 48 h
# 786-0 = system: 786-0
# A498 = system: A498
# A549 = system: A549
# ACHN = system: ACHN
# CAKI-1 = system: CAKI-1
# CCRF-CEM = system: CCRF-CEM
# COLO 205 = system: COLO 205
# DMS-114 = system: DMS-114
# DMS-273 = system: DMS-273
# EKVX = system: EKVX
# HCC 2998 = system: HCC 2998
# HCT-116 = system: HCT-116
# HCT-15 = system: HCT-15
# HL-60 = system: HL-60
# HOP-18 = system: HOP-18
# HOP-62 = system: HOP-62
# HT-29 = system: HT-29
# IGROV-1 = system: IGROV-1
# K562 = system: K562
# KM-20L2 = system: KM-20L2
# KM12 = system: KM12
# LOX IMVI = system: LOX IMVI
# LXFL 529 = system: LXFL 529
# M14 = system: M14
# M19-MEL = system: M19-MEL
# MOLT-4 = system: MOLT-4
# Malme-3M = system: Malme-3M
# NCI-H226 = system: NCI-H226
# NCI-H23 = system: NCI-H23
# NCI-H460 = system: NCI-H460
# NCI-H522 = system: NCI-H522
# OVCAR-3 = system: OVCAR-3
# OVCAR-4 = system: OVCAR-4
# OVCAR-5 = system: OVCAR-5
# OVCAR-8 = system: OVCAR-8
# RPMI-8226 = system: RPMI-8226
# RXF 393 = system: RXF 393
# RXF 631 = system: RXF 631
# SF-268 = system: SF-268
# SF-295 = system: SF-295
# SF-539 = system: SF-539
# SK-MEL-2 = system: SK-MEL-2
# SK-MEL-5 = system: SK-MEL-5
# SK-OV-3 = system: SK-OV-3
# SN12C = system: SN12C
# SNB-19 = system: SNB-19
# SNB-75 = system: SNB-75
# SW-620 = system: SW-620
# TK-10 = system: TK-10
# U-251 = system: U-251
# UACC-257 = system: UACC-257
# UACC-62 = system: UACC-62
# UO-31 = system: UO-31
# XF498 = system: XF498
# DLD-1 = system: DLD-1
# HOP-92 = system: HOP-92
# SK-MEL-28 = system: SK-MEL-28
# SR = system: SR
# BT-549 = system: BT-549
# DU-145 = system: DU-145
# Hs-578T = system: Hs-578T
# MCF7 = system: MCF7
# MDA-MB-231 = system: MDA-MB-231
# MDA-MB-435 = system: MDA-MB-435
# MDA-N = system: MDA-N
# NCI/ADR-RES = system: NCI/ADR-RES
# PC-3 = system: PC-3
# SNB-78 = system: SNB-78
compound,measurement,setting,value
CC(=O)O[C@H]1CCC2[C@@H]3CCC4Nc5[nH]ncc5C[C@]4(C)C3CC[C@@]21C (some centres not stated),GI50,786-0,> 100 µM (inactive)
same,GI50,A498,> 100 µM (inactive)
same,GI50,A549,> 100 µM (inactive)
same,GI50,ACHN,> 100 µM (inactive)
same,GI50,CAKI-1,45.1 µM (inactive)
same,GI50,CCRF-CEM,22.4 µM (inactive)
same,GI50,COLO 205,37.2 µM (inactive)
same,GI50,DMS-114,35.8 µM (inactive)
same,GI50,DMS-273,50.7 µM (inactive)
same,GI50,EKVX,35.1 µM (inactive)
same,GI50,HCC 2998,30.2 µM (inactive)
same,GI50,HCT-116,64.9 µM (inactive)
same,GI50,HCT-15,44.6 µM
same,GI50,HL-60,18.2 µM (inactive)
same,GI50,HOP-18,> 100 µM (inactive)
same,GI50,HOP-62,> 100 µM (inactive)
same,GI50,HT-29,45.3 µM (inactive)
same,GI50,IGROV-1,> 100 µM (inactive)
same,GI50,K562,36.3 µM (inactive)
same,GI50,KM-20L2,28.1 µM (inactive)
same,GI50,KM12,64.1 µM (inactive)
same,GI50,LOX IMVI,0.405 µM (active)
same,GI50,LXFL 529,28.5 µM (inactive)
same,GI50,M14,21.4 µM (inactive)
same,GI50,M19-MEL,32.7 µM (inactive)
same,GI50,MOLT-4,22.9 µM (inactive)
same,GI50,Malme-3M,32.7 µM (inactive)
same,GI50,NCI-H226,> 100 µM (inactive)
same,GI50,NCI-H23,61.2 µM (inactive)
same,GI50,NCI-H460,> 100 µM (inactive)
same,GI50,NCI-H522,21.4 µM (inactive)
same,GI50,OVCAR-3,32.4 µM (inactive)
same,GI50,OVCAR-4,81.1 µM (inactive)
same,GI50,OVCAR-5,> 100 µM (inactive)
same,GI50,OVCAR-8,34.9 µM (inactive)
same,GI50,RPMI-8226,31.9 µM (inactive)
same,GI50,RXF 393,> 100 µM (inactive)
same,GI50,RXF 631,> 100 µM (inactive)
same,GI50,SF-268,> 100 µM (inactive)
same,GI50,SF-295,> 100 µM (inactive)
same,GI50,SF-539,> 100 µM (inactive)
same,GI50,SK-MEL-2,> 100 µM (inactive)
same,GI50,SK-MEL-5,24.5 µM (inactive)
same,GI50,SK-OV-3,> 100 µM (inactive)
same,GI50,SN12C,> 100 µM (inactive)
same,GI50,SNB-19,26.4 µM (inactive)
same,GI50,SNB-75,54 µM (inactive)
same,GI50,SW-620,36.8 µM (inactive)
same,GI50,TK-10,74.6 µM (inactive)
same,GI50,U-251,80.2 µM (inactive)
same,GI50,UACC-257,22.4 µM (inactive)
same,GI50,UACC-62,18.9 µM (inactive)
same,GI50,UO-31,> 100 µM (inactive)
same,GI50,XF498,26.2 µM (inactive)
COc1ccc(CN2C(=O)[C@@H]3Cc4c(OC)c(C)c(OC)c(OC)c4[C@H](/C2=C\c2cc(OC)c(OC)c(C)c2OC)N3C(=O)OC(C)C)cc1,GI50,786-0,> 100 µM (inactive)
same,GI50,A498,27.3 µM (inactive)
same,GI50,A549,58.9 µM (inactive)
same,GI50,ACHN,> 100 µM (inactive)
same,GI50,CAKI-1,30.3 µM (inactive)
same,GI50,CCRF-CEM,35.4 µM (inactive)
same,GI50,COLO 205,12.4 µM (inactive)
same,GI50,DLD-1,69.3 µM (inactive)
same,GI50,DMS-114,7.38 µM (inactive)
same,GI50,DMS-273,19.3 µM (inactive)
same,GI50,EKVX,12.2 µM (inactive)
same,GI50,HCC 2998,22.4 µM (inactive)
same,GI50,HCT-116,9.66 µM (inactive)
same,GI50,HL-60,5.53 µM (inactive)
same,GI50,HOP-18,> 100 µM (inactive)
same,GI50,HOP-62,65 µM (inactive)
same,GI50,HOP-92,8.04 µM (inactive)
same,GI50,HT-29,92.5 µM (inactive)
same,GI50,IGROV-1,> 100 µM (inactive)
same,GI50,K562,25.3 µM (inactive)
same,GI50,KM-20L2,> 100 µM (inactive)
same,GI50,KM12,> 100 µM (inactive)
same,GI50,LOX IMVI,43 µM (inactive)
same,GI50,LXFL 529,7.24 µM (inactive)
same,GI50,M14,28.4 µM (inactive)
same,GI50,M19-MEL,42.7 µM (inactive)
same,GI50,MOLT-4,6.97 µM (inactive)
same,GI50,Malme-3M,41.2 µM (inactive)
same,GI50,NCI-H226,5.57 µM (inactive)
same,GI50,NCI-H23,66.4 µM (inactive)
same,GI50,NCI-H460,15.8 µM (inactive)
same,GI50,NCI-H522,8.75 µM (inactive)
same,GI50,OVCAR-3,99.1 µM (inactive)
same,GI50,OVCAR-4,50.7 µM (inactive)
same,GI50,OVCAR-5,> 100 µM (inactive)
same,GI50,OVCAR-8,> 100 µM (inactive)
same,GI50,RPMI-8226,8.34 µM (inactive)
same,GI50,RXF 393,80.4 µM (inactive)
same,GI50,RXF 631,> 100 µM (inactive)
same,GI50,SF-268,> 100 µM (inactive)
same,GI50,SF-295,96.2 µM (inactive)
same,GI50,SF-539,> 100 µM (inactive)
same,GI50,SK-MEL-28,> 100 µM (inactive)
same,GI50,SK-MEL-2,91.8 µM (inactive)
same,GI50,SK-MEL-5,29.4 µM (inactive)
same,GI50,SK-OV-3,32.5 µM (inactive)
same,GI50,SN12C,> 100 µM (inactive)
same,GI50,SNB-19,> 100 µM (inactive)
same,GI50,SNB-75,> 100 µM (inactive)
same,GI50,SR,6.53 µM (inactive)
same,GI50,SW-620,94.8 µM (inactive)
same,GI50,TK-10,78 µM (inactive)
same,GI50,U-251,> 100 µM (inactive)
same,GI50,UACC-257,8.28 µM (inactive)
same,GI50,UACC-62,48.6 µM (inactive)
same,GI50,UO-31,36.5 µM (inactive)
O=C1/C(=C/c2ccc(Cl)c(Cl)c2)CN(C(=O)CCN2CCOCC2)C/C1=C\c1ccc(Cl)c(Cl)c1,GI50,BT-549,0.0169 µM (active)
same,GI50,CAKI-1,1.51 µM (inactive)
same,GI50,DLD-1,0.182 µM (active)
same,GI50,DMS-114,0.746 µM (active)
same,GI50,DMS-273,1.12 µM (inactive)
same,GI50,DU-145,0.0373 µM (active)
same,GI50,EKVX,2.4 µM (inactive)
same,GI50,HCC 2998,2.09 µM (inactive)
same,GI50,HOP-18,2.55 µM (inactive)
same,GI50,Hs-578T,7.76 µM (inactive)
same,GI50,KM-20L2,1.38 µM (inactive)
same,GI50,LOX IMVI,0.00217 µM (active)
same,GI50,LXFL 529,1.56 µM (inactive)
same,GI50,M19-MEL,1.64 µM (inactive)
same,GI50,MCF7,0.0184 µM (active)
same,GI50,MDA-MB-231,0.00286 µM (active)
same,GI50,MDA-MB-435,0.0121 µM (active)
same,GI50,MDA-N,0.0145 µM (active)
same,GI50,MOLT-4,0.00283 µM (active)
same,GI50,NCI-H226,2.04 µM (inactive)
same,GI50,NCI/ADR-RES,0.0043 µM (active)
same,GI50,OVCAR-3,0.00454 µM (active)
same,GI50,OVCAR-4,0.00395 µM (active)
same,GI50,PC-3,0.00331 µM (active)
same,GI50,RXF 631,2.94 µM (inactive)
same,GI50,SNB-78,2.66 µM (inactive)
same,GI50,UACC-62,1.71 µM (inactive)
